Reference: patent US20240408057A1, “Composition for preventing or treating cachexia and muscle loss” (METAFINES.CO.LTD., priority 2023, published 2024)

What was measured:
Type in all cases: cell-based, mouse
[1] = system: Myogenin; test: Myogenin expression (Western blot) in C2C12 myotubes treated with inducers (no CCM); settings: 50 μM, 72 hours, vs UCM
Experimental: (§1) A C2C12 cell line was dispensed into a 6-well plate at 4.0×10^5 cells/well, and then cultured in DMEM medium containing 10% fetal bovine serum (FBS) under 37° C. and 5% CO2 conditions for one day. When the cell density reached about 80%, the medium was replaced with a differentiation medium and the cells were cultured for additional 3 days to set up a normal control group, and simultaneously a test group was set up by treatment with WY-14643, which is a PDK-4 activator, at a concentration of 50 μM. […] Scale bars inserted in FIGS. 13A and 13B represent a horizontal length of 50 μm. Referring to FIG. 13, it was confirmed that the diameter of myotube cells decreased when treated with the PDK-4 activator (i.e., WY-14643), thereby inducing the cells to a state similar to that of cancer cachexia.
(§2) Subsequently, the expression of PDK-4, MuRF1, Atrogin1, MyHC, and Myogenin in the normal control group (UCM) and the activator-treated group (WY-14643) were analyzed by Western blot, and the results are shown in FIGS. 14A and 14B. […]
(§3) Subsequently, the expression of Calpain 3, MuRF1, Atrogin1, MyHC, and Myogenin in the normal control group (UCM), vehicle control group (scrambled siRNA), and Calpain 3 siRNA treated group was analyzed by Western blot, and the results are shown in FIGS. 16A and 16B. […]

[2] = system: MuRF1; test: MuRF1 expression (Western blot) in C2C12 myotubes treated with inducers (no CCM); settings: 50 μM, 72 hours, vs UCM
Experimental: as §1, §2, §3

[3] = system: C2C12 myotube cells; test: Myotube diameter of C2C12 myotubes treated with inducers (no CCM); settings: 72 hours
Experimental: as §1
A C2C12 cell line was dispensed into a 6-well plate at 4.0×10^5 cells/well, and then cultured in DMEM medium containing 10% fetal bovine serum (FBS) under 37° C. and 5% CO2 conditions for one day. […]
A C2C12 cell line was dispensed into a 6-well plate at 4.0×10^5 cells/well, and then cultured in DMEM medium containing 10% fetal bovine serum (FBS) under 37° C. and 5% CO2 conditions for one day. […] The myotube diameter was measured using Image J to confirm the changes in diameter of myotube cells, and the results are shown in FIG. 37B.

[4] = system: Atrogin1; test: Atrogin1 expression (Western blot) in C2C12 myotubes treated with inducers (no CCM); settings: 50 μM, 72 hours, vs UCM
Experimental: as §1, §2, §3

[5] = system: MyHC; test: MyHC expression (Western blot) in C2C12 myotubes treated with inducers (no CCM); settings: 50 μM, 72 hours, vs UCM
Experimental: as §1, §2, §3

[6] = system: PDK-4; test: PDK-4 expression (Western blot) in C2C12 myotubes treated with inducers (no CCM); settings: 50 μM, 72 hours, vs UCM
Experimental: as §1
Subsequently, the expression of PDK-4, MuRF1, Atrogin1, MyHC, and Myogenin in the normal control group (UCM) and the activator-treated group (WY-14643) were analyzed by Western blot, and the results are shown in FIGS. 14A and 14B.
A C2C12 cell line was dispensed into a 6-well plate at 4.0×10^5 cells/well, and then cultured in DMEM medium containing 10% fetal bovine serum (FBS) under 37° C. and 5% CO2 conditions for one day. When the cell density reached about 80%, the medium was replaced with a differentiation medium and the cells were cultured for additional 3 days. […]

[7] = system: C2C12 myotube cells; test: Myotube diameter (crystal violet, Image J) of CCM-treated C2C12 myotubes; settings: C2C12 myotubes + CCM 1:1, 72 hours, predetermined concentration; compared to CCM
Experimental: A C2C12 cell line was dispensed into a 6-well plate at 4.0×10^5 cells/well, and then cultured in DMEM medium containing 10% fetal bovine serum (FBS) under 37° C. and 5% CO2 conditions for one day. When the cell density reached about 80%, the medium was replaced with a differentiation medium and the cells were cultured for additional 3 days. […] The myotube diameter was measured using Image J from the above image, and the change in myotube cell diameter is summarized in FIG. 17B. A C2C12 cell line was dispensed into a 6-well plate at 4.0×10^5 cells/well, and then cultured in DMEM medium containing 10% fetal bovine serum (FBS) under 37° C. and 5% CO2 conditions for one day. When the cell density reached about 80%, the medium was replaced with a differentiation medium and the cells were cultured for additional 3 days. […] The myotube diameter was measured using Image J from the above images, and the changes in myotube cell diameter are summarized in FIG. 24B.

[8] = system: GDF-15; test: GDF-15 expression (Western blot) in CCM-treated C2C12 myotubes; settings: for expression of GDF-15: C2C12 myotubes + CCM, 72 hours, comparison experiment with components alone and in combination; for expression level of GDF-15: C2C12 myotubes, differentiation medium:CCM 1:1, 72 hours, three predetermined concentrations, vs CCM control
Experimental: (§4) C2C12 cell line was dispensed into a 6-well plate at 4.0×10^5 cells/well and cultured in DMEM medium containing 10% fetal bovine serum (FBS) under 37° C. and 5% CO2 conditions for one day. When the cell density reached about 80%, the medium was replaced with a differentiation medium and the cells were cultured for additional 3 days. […] After culturing for 72 hours, the cells were collected and analyzed for PDK-4, which is a target marker, by Western blot and the results are summarized in FIG. 6.
The analysis was performed in the same manner as in Experimental Example 4-1 except for analyzing GDF-15 as a target marker for a Western blot, and the results are summarized in FIGS. 8 and 9.
The analysis was performed in the same manner as in Experimental Example 3-1 except for analyzing PDK-4 as a target marker for Western blot, and the results are summarized in FIGS. 10 and 11.
(§5) A C2C12 cell line was dispensed into a 6-well plate at 4.0×10^5 cells/well, and then cultured in DMEM medium containing 10% fetal bovine serum (FBS) under 37° C. and 5% CO2 conditions for one day. When the cell density reached about 80%, the medium was replaced with a differentiation medium and the cells were cultured for additional 3 days.

[9] = system: MyHC; test: MyHC expression (Western blot) in CCM-treated C2C12 myotubes; settings: 72 hours, compared to other experimental groups (components alone and in combination)
Experimental: (§6) A C2C12 cell line was dispensed into a 6-well plate at 4.0×10^5 cells/well, and then cultured in DMEM medium containing 10% fetal bovine serum (FBS) under 37° C. and 5% CO2 conditions for one day. When the cell density reached about 80%, the medium was replaced with a differentiation medium and the cells were cultured for additional 3 days. After confirming completion of differentiation of the cells, the cells were treated with a mixture, in which the differentiation medium and cancer-cell conditioned medium (CCM) were mixed at a 1:1 ratio, to form a control group, and simultaneously, a test group was set up by treating with the calcium salts of Preparation Examples 1 to 3 according to three predetermined concentrations.
as §5

[10] = system: Calpain 3; test: Calpain 3 expression (Western blot) in CCM-treated C2C12 myotubes
Experimental: as §4
The experiment was performed in the same manner as in Experimental Example 3-1, except that Calpain 3 was analyzed as a target marker for Western blot, and the results are summarized in FIG. 7.
as §5

[11] = system: MuRF1; test: MuRF1 expression (Western blot) in CCM-treated C2C12 myotubes; settings: 72 hours, compared to other experimental groups (components alone and in combination)
Experimental: as §6, §5

[12] = system: Myogenin; test: Myogenin expression (Western blot) in CCM-treated C2C12 myotubes; settings: 72 hours, compared to other experimental groups (components alone and in combination)
Experimental: as §6, §5

[13] = system: Atrogin1; test: Atrogin1 expression (Western blot) in CCM-treated C2C12 myotubes; settings: 72 hours, compared to other experimental groups (components alone and in combination)
Experimental: as §6, §5

[14] = system: PDK-4; test: PDK-4 expression (Western blot) in CCM-treated C2C12 myotubes; settings: for expression of PDK-4: C2C12 myotubes + CCM, 72 hours, comparison experiment with components alone and in combination; for expression level of PDK-4: C2C12 myotubes, differentiation medium:CCM 1:1, 72 hours, three predetermined concentrations, vs CCM control
Experimental: as §4, §5
Subsequently, MuRF1, Atrogin1, MyHC, Myogenin (muscle markers) and Calpain 3, PDK-4, and GDF-15 (other target markers for muscle related disease) were analyzed using Western blot, and the relative expression levels for the markers are shown in FIGS. 26 and 28.

[15] = C2C12 myotubes + CCM, 72 hours, compared to other experimental groups (components alone and in combination)
[16] = C2C12 myotubes, differentiation medium:CCM 1:1, 72 hours, three predetermined concentrations, vs CCM control

SMILES	diameter of myotube cells [7]	expression of GDF-15 [8]	expression level of GDF-15 [8]	expression of MyHC [9]	expression level of Calpain 3 [10, 15]	expression level of Calpain 3 [10, 16]	expression of MuRF1 [11]	expression of Myogenin [12]	expression of Atrogin1 [13]	expression of PDK-4 [14]	expression level of PDK-4 [14]	also measured
Cc1cccc(Nc2cc(Cl)nc(SCC(=O)O)n2)c1C [WY-14643]												expression of Myogenin [1]: down-regulated; expression of MuRF1 [2]: up-regulated; diameter of myotube cells ([3]; 50 μM, vs normal control (UCM)): decreased; expression of Atrogin1 [4]: up-regulated; expression of MyHC [5]: down-regulated; expression of PDK-4 [6]: up-regulated
O=C1O[C@H]([C@@H](O)CO)C(O)=C1O [ascorbic acid, reference compound]	increased											
CC(C)CC(N)C(=O)[O-].O=C([O-])C(Cl)Cl.[Ca+2] (centres unmarked) [Preparation Example 3, calcium salts of dichloroacetic acid and leucine]		inhibited	expression was inhibited	excellent effect of inhibiting the decrease of expression	higher expression level	decrease in expression was inhibited	excellent effect of inhibiting the increase of expression	excellent effect of inhibiting the decrease of expression	excellent effect of inhibiting the increase of expression	inhibited	expression was inhibited	
O=C(O)C(Cl)Cl [dichloroacetic acid, reference compound]	increased											
CC(C)CC(N)C(=O)[O-].O=C1OC(C(O)CO)C([O-])=C1O.[Ca+2] (centres unmarked) [Preparation Example 2, calcium salts of ascorbic acid and leucine]		inhibited	expression was inhibited	excellent effect of inhibiting the decrease of expression	higher expression level	decrease in expression was inhibited	excellent effect of inhibiting the increase of expression	excellent effect of inhibiting the decrease of expression	excellent effect of inhibiting the increase of expression	inhibited	expression was inhibited	
C[C@@H]1C[C@H]2[C@@H]3CCC4=CC(=O)C=C[C@]4(C)[C@@]3(F)[C@@H](O)C[C@]2(C)[C@@]1(O)C(=O)CO [dexamethasone]												treatment concentration from which the myotube diameter started to decrease [3]: ≥ 1 µM
